Structures can show the parent of a compound that is named as a salt. Where two headings read alike, the source gives them in different places.

Data set [1] addresses T1, human Dopamine D3 receptor (Homo sapiens, UniProt P35462).
T1 construct: expressed in transfected cells; host or cells: CHO cells (membranes)
Nature of the data set: In vitro binding affinity for human D3 receptor ([125I]iodosulpride). The protocol: Frozen membranes of human Dopamine D3 receptor-transfected CHO cells were thawed, briefly homogenized using an Ultra-Turrax T25 homogeniser and diluted in 50 mM Tris-HCl assay buffer containing 120 mM NaCl, 2 mM CaCl2, 1 mM MgCl2, 5 mM KCl and 0.1% BSA (adjusted to pH 7.4 with HCl) to an appropriate protein concentration optimized for specific and non-specific binding. Radioligand [^125I]Iodosulpride (Amersham, specific activity ˜2000 Ci/mmol) was diluted in assay buffer at a concentration of 2 nM. Prepared radioligand (20 μl), along with 40 μl of either the 10% DMSO control, Risperidone (10^−6M final concentration), or compound of interest, was then incubated with 70 μl of the prepared membrane solution and 70 μl of WGA coated PVT beads (0.25 mg/well final concentration). After shaking for 24 hours at RT plates were counted in a Topcount™ scintillation counter. Percentage specific binding and competition binding curves were calculated using S-Plus software (Insightful).

Data set [2] deals with T2, human Serotonin 5HT6 receptor (Homo sapiens, UniProt P50406).
T2 construct: expressed in transfected cells; host or cells: HEK cells (membranes)
Description: In vitro binding affinity for human 5HT6 receptor ([3H]LSD). On the procedure: Frozen membranes of human Serotonin 5HT6 receptor-transfected HEK cells were thawed, briefly homogenized using an Ultra-Turrax T25 homogeniser and diluted in 50 mM Tris-HCl assay buffer containing 10 mM MgCl2, 1 mM EDTA and 10 μM Pargyline (adjusted to pH 7.4 with HCl) to an appropriate protein concentration optimized for specific and non-specific binding. Radioligand [^3H]Lysergic acid diethylamide (Perkin Elmer, specific activity ˜80 Ci/mmol) was diluted in assay buffer at a concentration of 20 nM. Radioligand (20 μl), along with 40 μl of either the 10% DMSO control, Methiothepine (10^−5M final concentration), or compound of interest, was then incubated with 70 μl of the prepared membrane solution and 70 μl of WGA coated PVT beads (0.25 mg/well final concentration). After shaking for 24 hours at RT plates were counted in a Topcount™ scintillation counter. Percentage specific binding and competition binding curves were calculated using S-Plus software (Insightful).

For another data set, the target named is T3, human D2L receptor (Homo sapiens, UniProt P14416).
T3 construct: expressed in transfected cells
Description: Fast dissociation, indirect assay ([3H]spiperone binding after pre-incubation with compound). The settings on record: compound at 4 times its IC50, 1 h pre-incubation at 25° C., then 5 min with 1 nM [3H]spiperone on filter. The protocol:
Compounds were first screened for their D2 affinity in a binding assay using [^3H]spiperone and human D2L receptor cell membranes.
Compounds at a concentration of 4 times their IC50 were first incubated for one hour with human D2L receptor cell membranes in a volume of 2 ml at 25° C., then filtered over glass-fibre filter under suction using a 40 well multividor. Immediately after, the vacuum was released. 0.4 ml of pre-warmed buffer (25° C.) containing 1 nM [^3H]spiperone was added on the filter for 5 minutes. The incubation was stopped by initiating the vacuum and immediate rinsing with 2×5 ml of ice-cold buffer. The filter-bound radioactivity was measured in a liquid scintillation spectrometer. The principle of the assay is based on the assumption that the faster a compound dissociates from the D2 receptor, the faster [^3H]spiperone binds to the D2 receptor.

Data set [3] addresses T4, human Dopamine D2L receptor (Homo sapiens, UniProt P14416).
T4 construct: expressed in transfected cells; host or cells: CHO cells (membranes)
Nature of the data set: In vitro binding affinity for human D2L receptor ([3H]spiperone). The settings on record: membranes of human D2L receptor-transfected CHO cells, read-out: D2L binding pIC50 (converted). The source says: In order to find antipsychotic compounds active against positive and negative symptoms and cognitive impairment, and having an improved safety profile (low EPS incidence and no metabolic disorders), we have screened for compounds selectively interacting with the dopamine D2 receptor and dissociating fast from this receptor, and further having affinity for the dopamine D3 receptor as well as the serotonin 5-HT-6 receptor. Compounds were first screened for their D2 affinity in a binding assay using [^3H]spiperone and human D2L receptor cell membranes.
Frozen membranes of human Dopamine D2L receptor-transfected CHO cells were thawed, briefly homogenised using an Ultra-Turrax T25 homogeniser and diluted in Tris-HCl assay buffer containing NaCl, CaCl2, MgCl2, KCl (50, 120, 2, 1, and 5 mM respectively, adjusted to pH 7.7 with HCl) to an appropriate protein concentration optimised for specific and non-specific binding. Radioligand [^3H]Spiperone (NEN, specific activity ˜70 Ci/mmol) was diluted in assay buffer at a concentration of 2 nmol/L. Prepared radioligand (50 μl), along with 50 μl of either the 10% DMSO control, Butaclamol (10^−6 mol/l final concentration), or compound of interest, was then incubated (30 min, 37° C.) with 400 μl of the prepared membrane solution. Membrane-bound activity was filtered through a Packard Filtermate harvester onto GF/B Unifilterplates and washed with ice-cold Tris-HCl buffer (50 mM; pH 7.7; 6×0.5 ml). Filters were allowed to dry before adding scintillation fluid and counting in a Topcount scintillation counter. Percentage specific bound and competition binding curves were calculated using S-Plus software (Insightful).

Where [4] appears, read: membranes of human D3 receptor-transfected CHO cells, [125I]iodosulpride, read-out: D3 binding pIC50 (converted).
Setting [5] is: membranes of human 5HT6 receptor-transfected HEK cells, [3H]lysergic acid diethylamide, read-out: 5-HT6 binding pIC50 (converted).

T2 sequence (P50406 whole entry): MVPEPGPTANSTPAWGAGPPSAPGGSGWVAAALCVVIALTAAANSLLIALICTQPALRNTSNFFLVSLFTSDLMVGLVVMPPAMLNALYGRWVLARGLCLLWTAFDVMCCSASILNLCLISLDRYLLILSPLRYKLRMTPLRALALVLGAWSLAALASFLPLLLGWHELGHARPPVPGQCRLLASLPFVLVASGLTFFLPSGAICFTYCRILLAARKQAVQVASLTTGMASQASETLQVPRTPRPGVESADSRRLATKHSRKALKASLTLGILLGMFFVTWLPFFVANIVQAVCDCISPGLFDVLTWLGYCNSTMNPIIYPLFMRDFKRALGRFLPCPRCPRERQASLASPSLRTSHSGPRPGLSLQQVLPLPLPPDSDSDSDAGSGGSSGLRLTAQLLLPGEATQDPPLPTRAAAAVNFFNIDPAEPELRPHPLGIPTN
T1 sequence (P35462 whole entry): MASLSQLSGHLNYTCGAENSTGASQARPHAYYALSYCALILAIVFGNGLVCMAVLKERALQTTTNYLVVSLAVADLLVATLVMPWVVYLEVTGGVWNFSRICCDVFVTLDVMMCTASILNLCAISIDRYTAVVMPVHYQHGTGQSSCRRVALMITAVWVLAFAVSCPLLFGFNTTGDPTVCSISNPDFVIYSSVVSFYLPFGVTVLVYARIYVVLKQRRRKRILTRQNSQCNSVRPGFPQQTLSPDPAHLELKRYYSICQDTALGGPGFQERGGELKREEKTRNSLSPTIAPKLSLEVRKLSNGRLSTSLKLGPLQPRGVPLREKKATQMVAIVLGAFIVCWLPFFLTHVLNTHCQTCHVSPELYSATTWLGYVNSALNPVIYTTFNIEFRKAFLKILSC
T4 sequence (P14416 whole entry): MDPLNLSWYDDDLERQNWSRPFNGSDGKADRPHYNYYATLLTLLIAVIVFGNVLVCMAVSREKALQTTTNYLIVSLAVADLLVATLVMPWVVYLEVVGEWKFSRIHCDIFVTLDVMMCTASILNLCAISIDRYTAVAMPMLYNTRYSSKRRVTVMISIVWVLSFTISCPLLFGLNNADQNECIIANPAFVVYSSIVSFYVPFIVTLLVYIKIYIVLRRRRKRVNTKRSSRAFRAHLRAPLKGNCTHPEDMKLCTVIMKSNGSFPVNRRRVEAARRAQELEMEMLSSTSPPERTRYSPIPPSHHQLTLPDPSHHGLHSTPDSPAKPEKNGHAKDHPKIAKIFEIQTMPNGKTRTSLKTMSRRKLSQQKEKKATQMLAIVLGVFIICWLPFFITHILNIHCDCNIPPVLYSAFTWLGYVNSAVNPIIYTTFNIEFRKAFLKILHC
T3 sequence (P14416 whole entry): as above

As usually defined, the melting point is the temperature, or range, at which the solid turns liquid. Consider `N#Cc1nc(N2CCNCC2)cc(-c2ccccc2)c1C(F)(F)F` (as salt: salt) [Example B2, 4-Phenyl-6-piperazin-1-yl-3-trifluoromethyl-pyridine-2-carbonitrile], for which the melting point was 255.3 °C.
`COc1nc(C(F)(F)F)c(-c2ccccc2)cc1N1CCNCC1` (as salt: salt) [Example B5, 1-(2-Methoxy-5-phenyl-6-trifluoromethyl-pyridin-3-yl)-piperazine] came in with a melting point of 184.8 °C.
In the case of `COc1nc(C(F)(F)F)c(-c2ccc(F)cc2)cc1N1CCN(C(=O)OC(C)(C)C)CC1` [Example A16, 4-[5-(4-Fluoro-phenyl)-2-methoxy-6-trifluoromethyl-pyridin-3-yl]-piperazine-1-carboxylic acid tert-butyl ester], the IC50 is 2090 nM in data set [1] (setting [4]), 224 nM in data set [2] (setting [5]) and 7940 nM in data set [3]. Further, the “D2 dissociation ([3H]spiperone binding as % of total binding capacity)” value at human D2L receptor worked out at 83%.
On to `Fc1ccc(-c2cc(N3CCNCC3)ncc2C(F)(F)F)cc1` [Example B1, 1-[4-(4-Fluoro-phenyl)-5-trifluoromethyl-pyridin-2-yl]-piperazine], for which the melting point was found to be 80.6 °C. Moreover, the IC50 in data set [2] (setting [5]) is 123 nM. Also, in data set [3], the IC50 was 3890 nM.
Regarding `N#Cc1nc(N2CCNCC2)cc(-c2ccccc2)c1C(F)(F)F` [Example B2, 4-Phenyl-6-piperazin-1-yl-3-trifluoromethyl-pyridine-2-carbonitrile], the IC50 in data set [1] (setting [4]) is 10.7 nM; in data set [2] (setting [5]), 8.13 nM; in data set [3] it was 129 nM. For the same compound, on human D2L receptor, the “D2 dissociation ([3H]spiperone binding as % of total binding capacity)” value came to 60%.
Regarding `COc1nc(N2CCNCC2)cc(-c2ccccc2)c1C(F)(F)F` [Example B3, 1-(6-Methoxy-4-phenyl-5-trifluoromethyl-pyridin-2-yl)-piperazine], the figures for the IC50 in data set [1], in data set [2] and in data set [3] were 46.8 nM, 18.6 nM and 229 nM, respectively. The “D2 dissociation ([3H]spiperone binding as % of total binding capacity)” value on human D2L receptor is on record as 45%.
Consider `FC(F)(F)c1ncc(N2CCNCC2)cc1-c1ccccc1` [Example B4, 1-(5-Phenyl-6-trifluoromethyl-pyridin-3-yl)-piperazine], for which the IC50 in data set [1] was 33.9 nM; in data set [2] (setting [5]), 138 nM; in data set [3] it was 479 nM. For the same compound, the “D2 dissociation ([3H]spiperone binding as % of total binding capacity)” value on human D2L receptor was found to be 69%.
Turning to `COc1nc(C(F)(F)F)c(-c2ccccc2)cc1N1CCNCC1` [Example B5, 1-(2-Methoxy-5-phenyl-6-trifluoromethyl-pyridin-3-yl)-piperazine], the IC50 is 93.3 nM in data set [2] (setting [5]) and 204 nM in data set [3]. Also, on human D2L receptor, the “D2 dissociation ([3H]spiperone binding as % of total binding capacity)” value was found to be 66%.
Take `COc1nc(C(F)(F)F)c(-c2ccc(F)cc2)cc1N1CCNCC1` [Example B6, 1-[5-(4-Fluoro-phenyl)-2-methoxy-6-trifluoromethyl-pyridin-3-yl]-piperazine]: the IC50 in data set [2] (setting [5]) is 129 nM; in data set [3], 468 nM.
Take `N#Cc1nc(C(F)(F)F)c(-c2ccccc2)cc1N1CCNCC1` [Example B7, 5-Phenyl-3-piperazin-1-yl-6-trifluoromethyl-pyridine-2-carbonitrile]: the IC50 in data set [1] (setting [4]) is 372 nM; in data set [2] (setting [5]), 309 nM; in data set [3] it was 3390 nM.
For the compound `Cc1nc(C(F)(F)F)c(-c2ccccc2)cc1N1CCNCC1` [Example B8, 1-(2-Methyl-5-phenyl-6-trifluoromethyl-pyridin-3-yl)-piperazine], the IC50 is 2090 nM in data set [1] (setting [4]), 170 nM in data set [2] (setting [5]) and 4790 nM in data set [3]. Besides, at human D2L receptor, the “D2 dissociation ([3H]spiperone binding as % of total binding capacity)” value was 95%.

The values above are taken from patent publication US8895562B2, “Piperazin-1-yl-trifluoromethyl-substituted-pyridines as fast dissociating dopamine 2 receptor antagonists” (Janssen Pharmaceutica NV, priority 2008, dated 2014).
